In publication PMC11245557, “Differential potassium channel inhibitory activities of a novel thermostable degradation peptide BmKcug1a-P1 from scorpion medicinal material and its N-terminal truncated/restored peptides” (Scientific Reports, 2024):
Bridge positions count the residues as written; N and C are the ends. Peptide text beside a SMILES is read from it.

How the values were obtained:
Type in all cases: cell-based
hKv1.3 channel = target: T1, hKv1.3 channel (Homo sapiens, UniProt P22001); assay: Whole-cell patch clamp, hKv1.3 currents in transfected HEK293T cells; conditions: mean ± SE; for IC50: dose-response fitted with modified Hill equation; for IC50 / inhibition of hKv1.3 channel current: SEM
T1 construct: expressed in transfected cells; host or cells: HEK293T
T1 sequence (P22001 whole entry): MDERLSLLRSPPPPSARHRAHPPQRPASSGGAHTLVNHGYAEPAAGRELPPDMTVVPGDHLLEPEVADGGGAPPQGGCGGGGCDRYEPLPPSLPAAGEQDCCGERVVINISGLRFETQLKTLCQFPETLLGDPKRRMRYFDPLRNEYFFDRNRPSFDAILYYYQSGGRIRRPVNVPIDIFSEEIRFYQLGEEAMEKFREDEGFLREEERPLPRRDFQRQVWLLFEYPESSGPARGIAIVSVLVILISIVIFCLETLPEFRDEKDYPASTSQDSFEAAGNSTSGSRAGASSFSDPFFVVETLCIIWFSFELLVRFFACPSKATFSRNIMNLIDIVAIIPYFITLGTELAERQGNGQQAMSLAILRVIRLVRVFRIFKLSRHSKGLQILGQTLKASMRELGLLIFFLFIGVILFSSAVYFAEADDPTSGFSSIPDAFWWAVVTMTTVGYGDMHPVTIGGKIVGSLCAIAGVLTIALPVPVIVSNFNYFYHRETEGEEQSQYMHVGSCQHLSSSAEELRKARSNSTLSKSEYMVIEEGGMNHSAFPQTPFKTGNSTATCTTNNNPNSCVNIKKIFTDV
Text: (§1) The cDNA fragments encoding potassium channels were provided by others as previously described. The cDNA encoding hKv1.1 channel and hKv1.3 channel were cloned into the pCDNA3.1(+) vector. The cDNA encoding hKv1.2 channel, hKv1.6 channel and hKv3.2 channel were inserted into the pIRES2-EGFP vector.
(§2) HEK293T cell lines were obtained from the BeNa Culture Collection (Xinyang, China) and maintained in DMEM (Dulbecco’s Modified Eagle Medium, Gibco, Pittsburgh, PA, USA) supplemented with 10% fetal bovine serum (FBS, Gibco) and 1% penicillin/streptomycin (Gibco). Cells were passaged using Pancreatin (Gibco). For transfection experiments, HEK293T cells were seeded in appropriate culture vessels and allowed to reach 70–80% confluency. The expression vectors of pEGFP-N1 and potassium channels were co-transfected into HEK293T cells using ExFect Transfection Reagent (Vazyme, Nanjing, China) following its manufacturer’s instructions. Briefly, plasmid DNA and transfection reagent were mixed in serum-free medium, incubated for 15–30 min at room temperature to allow complex formation, and then added to the cells. After 24–48 h transfection, the single positive cells were selected based on the presence of GFP fluorescence to assess the potassium channel inhibiting activities of the peptides using whole cell patch clamp technique.
(§3) An EPC-10 patch-clamp amplifier which was controlled by PatchMaster software (HEKA Elektronik, Lambrecht, Germany) was applied to measure and record the potassium currents for whole-cell. The MPS-2 multichannel microperfusion system (INBIO Inc., Wuhan, China) was applied to exchange the external bath solution with different concentration of peptides. According to the protocol as previously described, the internal patch pipette solution and bath solution were prepared. The peptides were dissolved in Bath solution with 0.01% BSA (Gibco, Pittsburgh, PA, USA) to different concentrations. The potassium currents of hKv1.1, hKv1.2, hKv1.3, hKv1.6 and hKv3.2 channel were generated following the respective protocols as previously described. The results of the electrophysiological experiment are presented as the mean ± SE, and over three cells for each peptide in any concentration were examined ([…]).
(§4) For electrophysiological experiments, we used the ClampFit (Molecular Devices, Sunnyvale, CA, USA) and SigmaPlot software (IBM SPSS, Chicago, IL, USA) to analyze the recorded data. The dose–response relationship between channel current and peptide inhibition is fitted by the modified Hill equation: Ipeptide/Icontrol = 1/{1 + [peptide]/IC50}, in which Ipeptide represent the potassium current under the inhibition of peptide, Icontrol represent the peak current, IC50 is the half-maximum inhibition concentration, and [peptide] represents the concentration of the peptide. The half inhibitory concentration (IC50) was the parameter to be fitted.

hKv1.6 channel = target: T2, hKv1.6 channel (Homo sapiens, UniProt P17658); assay: Whole-cell patch clamp, hKv1.6 currents in transfected HEK293T cells; conditions: 1 μM peptide, mean ± SE, n ≥ 3, SEM
T2 construct: expressed in transfected cells; host or cells: HEK293T
T2 sequence (P17658 whole entry): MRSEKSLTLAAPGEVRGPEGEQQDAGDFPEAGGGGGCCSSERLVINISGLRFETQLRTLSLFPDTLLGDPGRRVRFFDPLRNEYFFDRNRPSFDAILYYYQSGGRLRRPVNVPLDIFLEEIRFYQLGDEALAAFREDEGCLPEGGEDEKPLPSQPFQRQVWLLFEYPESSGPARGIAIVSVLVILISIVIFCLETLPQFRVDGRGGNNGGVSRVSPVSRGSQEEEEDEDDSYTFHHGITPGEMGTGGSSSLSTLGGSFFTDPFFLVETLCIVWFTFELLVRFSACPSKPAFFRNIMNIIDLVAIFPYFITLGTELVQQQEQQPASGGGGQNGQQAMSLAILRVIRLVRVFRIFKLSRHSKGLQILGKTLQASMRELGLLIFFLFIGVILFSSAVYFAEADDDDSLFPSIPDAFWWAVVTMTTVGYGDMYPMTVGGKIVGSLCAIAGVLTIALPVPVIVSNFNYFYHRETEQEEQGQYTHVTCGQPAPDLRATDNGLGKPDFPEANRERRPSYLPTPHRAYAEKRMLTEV
Text: as §1
as §2, with “Briefly, plasmid DNA and transfection reagent were mixed in serum-free medium, incubated for 15–30 min at room temperature to allow complex formation, and then added to the cells.” left out, “technique. […]” for “technique.”
(§5) For electrophysiological experiments, we used the ClampFit (Molecular Devices, Sunnyvale, CA, USA) and SigmaPlot software (IBM SPSS, Chicago, IL, USA) to analyze the recorded data. […]

hKv1.2 channel = target: T3, hKv1.2 channel (Homo sapiens, UniProt P16389); assay: Whole-cell patch clamp, hKv1.2 currents in transfected HEK293T cells; conditions: mean ± SE
T3 construct: expressed in transfected cells; host or cells: HEK293T
T3 sequence (P16389 whole entry): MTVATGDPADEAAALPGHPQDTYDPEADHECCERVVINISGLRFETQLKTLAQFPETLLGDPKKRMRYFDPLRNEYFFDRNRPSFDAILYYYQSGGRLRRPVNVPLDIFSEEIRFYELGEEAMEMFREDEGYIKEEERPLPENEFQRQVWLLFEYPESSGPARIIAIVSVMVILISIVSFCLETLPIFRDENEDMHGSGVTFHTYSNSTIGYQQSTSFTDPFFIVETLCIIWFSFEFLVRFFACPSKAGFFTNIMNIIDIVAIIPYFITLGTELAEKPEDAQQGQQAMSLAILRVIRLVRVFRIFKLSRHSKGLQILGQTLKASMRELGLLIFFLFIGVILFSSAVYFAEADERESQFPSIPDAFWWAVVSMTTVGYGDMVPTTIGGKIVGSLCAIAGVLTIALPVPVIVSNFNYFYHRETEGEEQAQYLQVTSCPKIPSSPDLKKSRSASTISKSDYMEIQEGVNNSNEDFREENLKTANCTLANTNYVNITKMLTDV
Text: as §1, §2, §3, §4

hKv3.2 channel = target: T4, hKv3.2 channel (Homo sapiens, UniProt Q96PR1); assay: Whole-cell patch clamp, hKv3.2 currents in transfected HEK293T cells; conditions: 1 μM peptide, mean ± SE, n ≥ 3, SEM
T4 construct: expressed in transfected cells; host or cells: HEK293T
T4 sequence (Q96PR1 1-638): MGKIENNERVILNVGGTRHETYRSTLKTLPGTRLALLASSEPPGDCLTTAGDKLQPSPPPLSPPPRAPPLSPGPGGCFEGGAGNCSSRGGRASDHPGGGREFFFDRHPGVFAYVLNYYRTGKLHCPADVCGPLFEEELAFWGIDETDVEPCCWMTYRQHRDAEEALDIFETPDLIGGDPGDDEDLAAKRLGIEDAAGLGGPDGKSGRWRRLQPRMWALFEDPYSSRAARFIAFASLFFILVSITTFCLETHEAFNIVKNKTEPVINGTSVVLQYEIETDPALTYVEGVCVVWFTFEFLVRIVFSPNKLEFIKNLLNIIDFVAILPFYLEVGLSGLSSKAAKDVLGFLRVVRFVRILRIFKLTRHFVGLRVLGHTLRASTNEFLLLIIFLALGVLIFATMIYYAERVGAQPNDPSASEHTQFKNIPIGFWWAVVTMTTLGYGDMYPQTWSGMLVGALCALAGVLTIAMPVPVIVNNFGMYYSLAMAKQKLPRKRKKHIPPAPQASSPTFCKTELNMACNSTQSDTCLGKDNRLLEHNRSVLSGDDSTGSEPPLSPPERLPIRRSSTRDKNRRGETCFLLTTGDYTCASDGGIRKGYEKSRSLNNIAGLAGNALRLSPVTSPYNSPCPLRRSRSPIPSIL
Text: as §1
as §2, with “Briefly, plasmid DNA and transfection reagent were mixed in serum-free medium, incubated for 15–30 min at room temperature to allow complex formation, and then added to the cells.” left out, “technique. […]” for “technique.”
as §5

hKv1.1 channel = target: T5, hKv1.1 channel (Homo sapiens, UniProt Q09470); assay: Whole-cell patch clamp, hKv1.1 currents in transfected HEK293T cells; conditions: 1 μM peptide, mean ± SE, n ≥ 3, SEM
T5 construct: expressed in transfected cells; host or cells: HEK293T
T5 sequence (Q09470 whole entry): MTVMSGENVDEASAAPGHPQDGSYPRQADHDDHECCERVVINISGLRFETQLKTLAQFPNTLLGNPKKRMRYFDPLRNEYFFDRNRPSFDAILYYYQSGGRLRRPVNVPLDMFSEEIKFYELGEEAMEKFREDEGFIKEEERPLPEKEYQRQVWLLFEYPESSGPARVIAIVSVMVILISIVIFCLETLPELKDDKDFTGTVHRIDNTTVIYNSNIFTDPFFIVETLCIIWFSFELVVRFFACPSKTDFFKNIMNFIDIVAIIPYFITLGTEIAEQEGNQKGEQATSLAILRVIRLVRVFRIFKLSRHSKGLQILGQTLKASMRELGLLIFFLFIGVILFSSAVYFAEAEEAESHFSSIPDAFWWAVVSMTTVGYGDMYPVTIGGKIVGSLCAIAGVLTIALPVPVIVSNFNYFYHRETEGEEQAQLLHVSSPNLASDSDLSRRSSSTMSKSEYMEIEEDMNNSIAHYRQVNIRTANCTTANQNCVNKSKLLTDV
Text: as §1
as §2, with “Briefly, plasmid DNA and transfection reagent were mixed in serum-free medium, incubated for 15–30 min at room temperature to allow complex formation, and then added to the cells.” left out, “technique. […]” for “technique.”
as §5

[1] = 1 μM peptide, HEK293T, n ≥ 3, SEM

Q: `CSCC[C@@H]1NC(=O)[C@@H]2CSSC[C@H](NC(=O)[C@H](CO)NC(=O)[C@@H](NC(=O)[C@@H](N)CC(N)=O)C(C)C)C(=O)N[C@@H](CO)C(=O)N[C@@H](C)C(=O)N[C@@H](CO)C(=O)N[C@@H](CO)C(=O)N[C@@H](CCC(N)=O)C(=O)N[C@H]3CSSC[C@H](NC(=O)[C@H](CCCCN)NC(=O)[C@H](CO)NC(=O)[C@H](CC(N)=O)NC1=O)C(=O)N[C@@H](CCCNC(=N)N)C(=O)N[C@H](C(=O)N[C@@H](Cc1ccc(O)cc1)C(=O)N[C@@H](CO)C(=O)O)CSSC[C@H](NC(=O)[C@H](C(C)C)NC(=O)[C@@H]1CCCN1C(=O)[C@H](Cc1c[nH]c4ccccc14)NC3=O)C(=O)N[C@@H](CCC(=O)O)C(=O)N[C@@H](CCCCN)C(=O)N[C@@H](CC(C)C)C(=O)N[C@@H](Cc1ccccc1)C(=O)NCC(=O)N[C@@H]([C@@H](C)O)C(=O)N[C@@H](Cc1ccc(O)cc1)C(=O)N[C@@H](CCCNC(=N)N)C(=O)NCC(=O)N[C@@H](CCCCN)C(=O)N2` [BmKcug1a-P1-D2] (H-NVSCSASSQCWPVCEKLFGTYRGKCMNSKCRCYS-OH; disulfide 4-25, 10-30, 14-32) was tested. Which IC50 (hKv1.3 channel; HEK293T) did it give?
A: Its IC50 is 1660 ± 180 nM.

Q: For `CSCC[C@@H]1NC(=O)[C@@H]2CSSC[C@H](NC(=O)[C@@H](N)CO)C(=O)N[C@@H](CO)C(=O)N[C@@H](C)C(=O)N[C@@H](CO)C(=O)N[C@@H](CO)C(=O)N[C@@H](CCC(N)=O)C(=O)N[C@H]3CSSC[C@H](NC(=O)[C@H](CCCCN)NC(=O)[C@H](CO)NC(=O)[C@H](CC(N)=O)NC1=O)C(=O)N[C@@H](CCCNC(=N)N)C(=O)N[C@H](C(=O)N[C@@H](Cc1ccc(O)cc1)C(=O)N[C@@H](CO)C(=O)O)CSSC[C@H](NC(=O)[C@H](C(C)C)NC(=O)[C@@H]1CCCN1C(=O)[C@H](Cc1c[nH]c4ccccc14)NC3=O)C(=O)N[C@@H](CCC(=O)O)C(=O)N[C@@H](CCCCN)C(=O)N[C@@H](CC(C)C)C(=O)N[C@@H](Cc1ccccc1)C(=O)NCC(=O)N[C@@H]([C@@H](C)O)C(=O)N[C@@H](Cc1ccc(O)cc1)C(=O)N[C@@H](CCCNC(=N)N)C(=O)NCC(=O)N[C@@H](CCCCN)C(=O)N2` [BmKcug1a-P1-D4] (H-SCSASSQCWPVCEKLFGTYRGKCMNSKCRCYS-OH; disulfide 2-23, 8-28, 12-30 (inferred); N-terminus and C-terminus assumed), which IC50 (hKv1.3 channel; HEK293T) is on record?
A: The IC50 was 2210 ± 280 nM.

Q: Which results are given for `CSCC[C@@H]1NC(=O)[C@@H]2CSSC[C@H](NC(=O)[C@H](CO)NC(=O)[C@@H](NC(=O)[C@H](CC(N)=O)NC(=O)[C@@H](NC(=O)[C@@H](N)Cc3ccccc3)[C@@H](C)O)C(C)C)C(=O)N[C@@H](CO)C(=O)N[C@@H](C)C(=O)N[C@@H](CO)C(=O)N[C@@H](CO)C(=O)N[C@@H](CCC(N)=O)C(=O)N[C@H]3CSSC[C@H](NC(=O)[C@H](CCCCN)NC(=O)[C@H](CO)NC(=O)[C@H](CC(N)=O)NC1=O)C(=O)N[C@@H](CCCNC(=N)N)C(=O)N[C@H](C(=O)N[C@@H](Cc1ccc(O)cc1)C(=O)N[C@@H](CO)C(=O)O)CSSC[C@H](NC(=O)[C@H](C(C)C)NC(=O)[C@@H]1CCCN1C(=O)[C@H](Cc1c[nH]c4ccccc14)NC3=O)C(=O)N[C@@H](CCC(=O)O)C(=O)N[C@@H](CCCCN)C(=O)N[C@@H](CC(C)C)C(=O)N[C@@H](Cc1ccccc1)C(=O)NCC(=O)N[C@@H]([C@@H](C)O)C(=O)N[C@@H](Cc1ccc(O)cc1)C(=O)N[C@@H](CCCNC(=N)N)C(=O)NCC(=O)N[C@@H](CCCCN)C(=O)N2` [BmKcug1a-P1] (H-FTNVSCSASSQCWPVCEKLFGTYRGKCMNSKCRCYS-OH; disulfide 6-27, 12-32, 16-34)?
A: inhibition of potassium currents mediated by hKv1.6 (hKv1.6 channel): 3.8 ± 1.6%; inhibition of hKv1.2 channel current (hKv1.2 channel; 200 nM peptide, SEM): 12.6 ± 3.3%; inhibition of potassium currents mediated by hKv1.2 (hKv1.2 channel; [1]): 37.7 ± 7.4%; inhibition of hKv1.2 channel current (hKv1.2 channel; 5 μM peptide, SEM): 64.1 ± 4.5%; inhibition of hKv1.2 channel current (hKv1.2 channel; 25 μM peptide, SEM): 83.9 ± 2.2%; IC50 (hKv1.2 channel; HEK293T, dose-response fitted with modified Hill equation, SEM): 2120 ± 270 nM; inhibition of hKv1.3 channel current (hKv1.3 channel; 40 nM peptide): 7.0 ± 0.5%; inhibition of hKv1.3 channel current (hKv1.3 channel; 200 nM peptide): 18.3 ± 2.1%; inhibition of potassium currents mediated by hKv1.3 (hKv1.3 channel; [1]): 47.3 ± 3.5%; inhibition of hKv1.3 channel current (hKv1.3 channel; 5 μM peptide): 65.2 ± 2.3%; inhibition of hKv1.3 channel current (hKv1.3 channel; 25 μM peptide): 82.0 ± 0.6%; IC50 (hKv1.3 channel; HEK293T): 1540 ± 280 nM; inhibition of potassium currents mediated by hKv3.2 (hKv3.2 channel): 6.5 ± 0.9%; inhibition of potassium currents mediated by hKv1.1 (hKv1.1 channel): 1.9 ± 0.3%
